Assay results as given in patent publication US10857105B2, “Compounds and compositions for intracellular delivery of therapeutic agents” (ModernaTX, Inc., priority 2017, dated 2020).
Marks after values point to notes of the source that are not given here.

Assays:
[1] = test system: mice; experiment: hEPO expression on repeat intravenous dosing of hEPO mRNA LNPs in mice; assay type: in vivo; conditions: 0.5 mg/kg hEPO mRNA intravenously to mice
Experimental: Blood collection and analysis for hEPO. Blood was collected from mice or rats via the tail vein and hEPO concentrations were determined using a hEPO ELISA assay.
Repeat dosing of mRNA in an MC3-based LNP for a therapeutic indication would be expected to lead to accumulation of MC3 in tissues, based on the measured half-life. Therefore it was investigated whether the favorable single dose pharmacokinetics of compound 18 were maintained with weekly dosing. Clearance of MC3 and compound 18 from multiple mouse tissues was measured after dosing 0.05 mg/kg mRNA on day 1, 8 and 15 (FIG. 30A). Following dosing with MC3 LNPs, lipid was detected in liver, spleen, plasma, kidney, heart and lung; with liver and spleen containing the largest concentrations (FIG. 30A, for full panel of tissues see FIG. 35A). […] Compound 18 was also detected in plasma, lung, and kidney, but not in heart (FIG. 35A).

[2] = Metabolite identification of Compound 18 incubated with human plasma; assay type: in vitro ADME; parameters: key to Detection at 0 min / Detection at 30 min / Detection at 60 min / Detection at 90 min: +: Detected; ND: Not detected
Experimental: Metabolite Identification: Compound 18 (10 μM) was incubated with human plasma (29.0 mg protein/incubation) in incubation mixtures (200 μL final incubation volume) that consisted of 50/50 v/v neat plasma (undiluted)/substrate solution in 50 mM phosphate buffer, pH 7.4). The plasma was obtained from male and female donors and contained K2EDTA anticoagulant. Reactions were started by addition of the substrate solution to human plasma and were stopped at four designated time points (0, 30, 60 and 90 min) by the addition of 600 μL of stop reagent (acetonitrile). Stopped incubation samples were centrifuged (e.g., 10,000×g for 10 min at 10° C.) and the supernatant fractions were analyzed by LC-MS/MS to characterize the metabolites formed from compound 18. Additional incubations were performed with the positive control procaine […] to establish competency of the test system. Samples were analyzed by LC-MS/MS.
In vitro metabolite identification studies using compound 18 were also performed. […] The disappearance of parent compound 18 and the primary metabolite, compound 166, from mouse liver tissue was measured after dosing 0.25 mg/kg mRNA on days 1, 8, and 15.

[3] = test system: cynomolgus monkeys; experiment: Human IgG (anti-influenza A antibody mRNA) expression in non-human primates; assay type: in vivo, cynomolgus monkey; conditions: NHP, single dose
Experimental: NHP studies: Nonhuman primate studies were conducted using naïve cynomolgus monkeys (cynos), 2-4 years old, weighing 2-6 kg. No treatment randomization or blinding methods were used for any of the animal studies. Sample sizes were determined by the resource equation method. For injection, mRNA-LNPs in phosphate buffered saline (PBS) were administered by 60-minute intravenous infusion using a temporary indwelling catheter inserted in a peripheral vein.
Human IgG analysis for NHP samples: A 10.0-μL matrix aliquot is transferred to a low protein binding 96-well plate. A 25.0-μL aliquot of the working internal standard solution is added, and the sample aliquot is diluted with loading buffer. […] The final extract is analyzed via HPLC with MS/MS detection using positive ion electrospray. A linear, 1/concentration^2 weighted, least-squares regression algorithm is used to quantitate unknown samples.
NHP more closely approximates clinical responses for LNP-based systems than rodent (DeRosa, F., Guild, B., Karve, S., Smith, L., Love, K., Dorkin, J R., et. al. Therapeutic efficacy in a hemophilia B model using a biosynthetic mRNA liver depot system. Gene Ther. 2016, 23, 699-707, the contents of which are incorporated herein by reference in their entireties). […] A separate study evaluated the lipid tissue accumulation in NHP after a single dose.

[4] = test system: ApoE knockout mice; experiment: Expression study in ApoE knockout mice; assay type: in vivo; conditions: compound 18 based LNPs
[5] = test system: LDLr knockout mice; experiment: Expression study in LDLr knockout mice; assay type: in vivo; conditions: compound 18 based LNPs
[6] = in vivo; conditions: male, Sprague-Dawley, rat, iv
Experimental: LNP administration to animals: mRNA-LNPs diluted in phosphate buffered saline (PBS) were injected intravenously (5 mL/kg) into female CD-1 female mice (18 to 22 g in body weight) and male Sprague-Dawley rats (225-250 g in body weight) via the tail vein using 29 g, 3/10 cc insulin syringes (mice) or 27 g, 1 mL syringes (rats) after gentle warming of the animals using a heat lamp for 3 minutes.
Protein was precipitated and analyzed against calibration standards prepared in matching blank. Chromatographic separation and quantification was accomplished with a LC-MS/MS System. Samples were injected and separated via HPLC A triple-quadrupole MS/MS system operated in positive ion mode was used for signal detection.
PK analysis of the individual plasma and tissue concentration data was performed using anon-validated program (Phoenix WinNonlin®, Version 7.0 (Pharsight Corp., Mountain View, Calif.)). Kinetic parameters were estimated using a noncompartmental model (Plasma (200-202), Uniform weighting, extravascular dosing with sparse sampling). The AUG was calculated using the linear trapezoidal rule. All derived parameters are reported to 3 significant figures with the exception of time to peak concentration (Tmax) and halflife (HL), which are reported to one decimal place. No further statistical analyses were performed on the plasma concentration data or derived pharacokinetic parameters.

[7] = test system: hEPO mRNA; experiment: hEPO expression and pharmacokinetic parameters after intravenous infusion to non-human primates; assay type: in vivo; conditions: 0.01 mpk, iv infusion 60 minutes, cynomolgus monkeys
[8] = MC3 single cell necrosis in rat liver and liver enzymes (ALT, AST); assay type: in vivo; conditions: rats, 0.3 mg/kg MC3-based LNP
Experimental: FIG. 37 is a series of graphs illustrating MC3 single cell necrosis in rat liver and liver enzyme. The top row is a pair of images of livers of rats administered with 0.3 mg/kg of a […] (LNP) not containing an mRNA (right) and PBS (phosphate buffered saline) as a control (left). The bottom row is a pair of graphs showing expression of ALT (left) and AST(right) in the liver following administration of a 0.3 mg/kg of a MC3-based LNP containing an mRNA.

[9] = test system: Sprague Dawley rat liver; experiment: Lipid remaining in rat liver tissue 48 h post dose (LC-MS/MS); assay type: in vivo; conditions: Sprague Dawley rat liver 48 h after 2 mg/kg bolus dose mRNA
Source text: Similar results were obtained in the Sprague Dawley rats using human erythropoietin (hEPO) encoding mRNA (FIG. 29C). […] Compound 18 and compound 25 provided a good balance of delivery efficiency and pharmacokinetics.

[10] = test system: Sprague Dawley rat; conditions: 0.3 mg/kg dose mRNA; cited from earlier work

Row | Structure (SMILES) | hEPO expression on repeat dosing [1] | Detection at 0 min ([2]; Compound 18 (10 μM), human plasma (29.0 mg protein/incubation), 0 min) | Detection at 30 min ([2]; Compound 18 (10 μM), human plasma, 30 min) | Detection at 60 min ([2]; Compound 18 (10 μM), human plasma, 60 min) | Detection at 90 min ([2]; Compound 18 (10 μM), human plasma, 90 min) | initial step of metabolism ([2]; in vitro metabolite identification studies) | increase in expression of anti-human IgG influenza A antibody compared to an MC3 LNP [3] [fold] | expression in ApoE knockout mice [4] | expression in LDLr knockout mice [5] | half-life [6] [h] | AUC Lipid/MC3 Ratio [7] | ALT, AST and liver pathology [8] | % dose remaining Rat liver tissue, 48 h [9] | ALT, AST and pathology of MC3-based mRNA LNP [10]
1 | CCCCCCCCCOC(=O)CCCCCCCN(CCO)CCCCCCCC(=O)OC(CCCCCCCC)CCCCCCCC [Compound 18, Heptadecan-9-yl 8-((2-hydroxyethyl)(8-(nonyloxy)-8-oxooctyl)amino)octanoate] | Consistent levels of expression | + | + | + | + | hydrolysis of the primary ester | 5 | almost complete loss in expression | almost complete loss in expression | 5.8 | – | – | – | –
2 | CCCCCC=CCC=CCCCCCCCCC(CCCCCCCCC=CCC=CCCCCC)OC(=O)CCCN(C)C (centres unmarked) [MC3, heptatriaconta-6,9,28,31-tetraen-19-yl 4-(dimethylamino)butanoate, reference compound] | – | – | – | – | – | – | – | – | – | – | 1.0 | ALT and AST were elevated and pathology showed evidence of necrosis | 61^e % | ALT and AST were elevated and pathology showed evidence of necrosis
